Measured values taken from US20210292347A1, “DIHETEROCYCLIC TRIAZINONE NUCLEOSIDE ANALOGS AND THEIR USE FOR MEDICATION” (priority 2020, published 2021).

System: mice sarcoma S180
Experiment: Growth inhibition of S180 sarcoma in mice
Format: in vivo, Kunming healthy mice
Settings: for in-vivo anti-tumor efficacy, statistical significance (in words): S180 sarcoma in mice, doses and routes of Table 3
[1] = Mus musculus, S-180, mice, ip, 200 mg/kg, read-out: Inhibition rate (%) S180 sarcoma
[2] = Mus musculus, S-180, mice, ip, 100 mg/kg, read-out: Inhibition rate (%) S180 sarcoma
[3] = Mus musculus, S-180, mice, iv, read-out: Inhibition rate (%) S180 sarcoma

2-(3,4-dihydroxy-5-(hydroxymethyl)tetrahydrofuran-2-yl)-7-hydroxy-5-propyl-2,7-dihydro-1H-pyrazolo[4,3-d][1,2,3]triazin-1-one [Example 14]
in-vivo anti-tumor efficacy, statistical significance (in words): statistically significant | Inhibition rate (%) S180 sarcoma (mice, iv, 12.5 mg/kg): ++ (++ represent of Inhibition rate % <40)

CN(C)CCC(=O)Nc1nn(O)c2c(=O)n(C3OC(CO)C(O)C3O)nnc12 (centres unmarked) [Example 16, N-(3-(3,4-dihydroxy-5-(hydroxymethyl)tetrahydrofuran-2-yl)-5-hydroxy-4-oxo-4,5-dihydro-3H-pyrazolo[4,3-d][1,2,3]triazin-7-yl)-3-(dimethylamino) propanamide]
Inhibition rate (%) S180 sarcoma (mice, ip, 100 mg/kg): + (+ represent of Inhibition rate % <20)

N#Cc1nn(O)c2c(=O)n(C3OC(CO)C(O)C3O)nnc12 (centres unmarked) [Example 17, 3-(3,4-dihydroxy-5-(hydroxymethyl)tetrahydrofuran-2-yl)-5-hydroxy-4-oxo-4,5-dihydro-3H-pyrazolo [4,3-d][1,2,3]triazine-7-carbonitrile]
inhibition in vivo at 25 mg/kg (Mus musculus, S-180, mice, iv, 25 mg/kg, read-out: Inhibition rate (%) S180 sarcoma): < 40% | in-vivo anti-tumor efficacy, statistical significance (in words): statistically significant

O=c1c2c(nnn1C1OC(CO)C(O)C1O)c(N1CCCCC1)nn2O (centres unmarked) [Example 18, 3-(3,4-dihydroxy-5-(hydroxymethyl)tetrahydrofuran-2-yl)-5-hydroxy-7-(piperidin-1-yl)-3H-pyrazolo [4,3-d][1,2,3]triazin-4(5H)-one]
inhibition in vivo at 200 mg/kg [1]: < 20%

COc1ccc(C(=O)Nc2nn(O)c3c(=O)n(C4OC(CO)C(O)C4O)nnc23)cc1 (centres unmarked) [Example 20, N-(3-(3,4-dihydroxy-5-(hydroxymethyl)tetrahydrofuran-2-yl)-5-hydroxy-4-oxo-4,5-dihydro-3H-pyrazolo[4,3-d][1,2,3]triazin-7-yl)-4-methoxybenzamide]
inhibition in vivo at 200 mg/kg [1]: < 20%

CCOC(=O)c1nn(C)c2c(=O)n(C3OC(CO)C(O)C3O)nnc12 (centres unmarked) [Example 22, ethyl 3-(3,4-dihydroxy-5-(hydroxymethyl)tetrahydrofuran-2-yl)-5-methyl-4-oxo-4,5-dihydro-3H-pyrazolo[4,3-d][1,2,3]triazine-7-carboxylate]
inhibition in vivo at 200 mg/kg [1]: < 40% | in-vivo anti-tumor efficacy, statistical significance (in words): statistically significant

CCCc1nn(C)c2c(=O)n(C3OC(CO)C(O)C3O)nnc12 (centres unmarked) [Example 23, 3-(3,4-dihydroxy-5-(hydroxymethyl)tetrahydrofuran-2-yl)-5-methyl-7-propyl-3H-pyrazolo [4,3-d][1,2,3]triazin-4(5H)-one]
inhibition in vivo at 100 mg/kg [2]: < 40% | in-vivo anti-tumor efficacy, statistical significance (in words): statistically significant

Cn1nc(N)c2nnn(C3OC(CO)C(O)C3O)c(=O)c21 (centres unmarked) [Example 24, 7-amino-3-(3,4-dihydroxy-5-(hydroxymethyl)tetrahydrofuran-2-yl)-5-methyl-3H-pyrazolo [4,3-d][1,2,3]triazin-4(5H)-one]
inhibition in vivo at 300 mg/kg (Mus musculus, S-180, mice, ip, 300 mg/kg, read-out: Inhibition rate (%) S180 sarcoma): < 40% | in-vivo anti-tumor efficacy, statistical significance (in words): statistically significant

CN(C)CCC(=O)Nc1nn(C)c2c(=O)n(C3OC(CO)C(O)C3O)nnc12 (centres unmarked) [Example 25, N-(3-(3,4-dihydroxy-5-(hydroxymethyl)tetrahydrofuran-2-yl)-5-methyl-4-oxo-4,5-dihydro-3H-pyrazolo[4,3-d][1,2,3]triazin-7-yl)-3-(dimethylamino) propanamide]
in-vivo anti-tumor efficacy, statistical significance (in words): statistically significant | Inhibition rate (%) S180 sarcoma (mice, ip, 200 mg/kg): ++ (++ represent of Inhibition rate % <40)

Cn1nc(C#N)c2nnn(C3OC(CO)C(O)C3O)c(=O)c21 (centres unmarked) [Example 26, 3-(3,4-dihydroxy-5-(hydroxymethyl)tetrahydrofuran-2-yl)-5-methyl-4-oxo-4,5-dihydro-3H-pyrazolo[4,3-d][1,2,3]triazine-7-carbonitrile]
inhibition in vivo at 70 mg/kg (Mus musculus, S-180, mice, ip, 70 mg/kg, read-out: Inhibition rate (%) S180 sarcoma): < 40% | in-vivo anti-tumor efficacy, statistical significance (in words): statistically significant

Cn1nc(N2CCCCC2)c2nnn(C3OC(CO)C(O)C3O)c(=O)c21 (centres unmarked) [Example 27, 3-(3,4-dihydroxy-5-(hydroxymethyl)tetrahydrofuran-2-yl)-5-methyl-7-(piperidin-1-yl)-3H-pyrazolo[4,3-d][1,2,3]triazin-4(5H)-one]
inhibition in vivo at 15 mg/kg [3]: < 20%

Cn1nc([N+](=O)[O-])c2nnn(C3OC(CO)C(O)C3O)c(=O)c21 (centres unmarked) [Example 28, 3-(3,4-dihydroxy-5-(hydroxymethyl)tetrahydrofuran-2-yl)-5-methyl-7-nitro-3H-pyrazolo [4,3-d][1,2,3]triazin-4(5H)-one]
inhibition in vivo at 20 mg/kg (Mus musculus, S-180, mice, iv, 20 mg/kg, read-out: Inhibition rate (%) S180 sarcoma): < 40% | in-vivo anti-tumor efficacy, statistical significance (in words): statistically significant

COc1ccc(C(=O)Nc2nn(C)c3c(=O)n(C4OC(CO)C(O)C4O)nnc23)cc1 (centres unmarked) [Example 29, N-(3-(3,4-dihydroxy-5-(hydroxymethyl)tetrahydrofuran-2-yl)-5-methyl-4-oxo-4,5-dihydro-3H-pyrazolo[4,3-d][1,2,3]triazin-7-yl)-4-methoxybenzamide]
inhibition in vivo at 15 mg/kg [3]: < 20%

CCOC(=O)c1nn(CO)c2c(=O)n(C3OC(CO)C(O)C3O)nnc12 (centres unmarked) [Example 30, ethyl 3-(3,4-dihydroxy-5-(hydroxymethyl)tetrahydrofuran-2-yl)-5-(hydroxymethyl)-4-oxo-4,5-dihydro-3H-pyrazolo [4,3-d][1,2,3]triazine-7-carboxylate]
inhibition in vivo at 400 mg/kg (Mus musculus, S-180, mice, ip, 400 mg/kg, read-out: Inhibition rate (%) S180 sarcoma): < 40% | in-vivo anti-tumor efficacy, statistical significance (in words): statistically significant

CCCc1nn(CO)c2c(=O)n(C3OC(CO)C(O)C3O)nnc12 (centres unmarked) [Example 31, 3-(3,4-dihydroxy-5-(hydroxymethyl)tetrahydrofuran-2-yl)-5-(hydroxymethyl)-7-propyl-3H-pyrazolo[4,3-d][1,2,3]triazin-4(5H)-one]
inhibition in vivo at 100 mg/kg [2]: < 40% | in-vivo anti-tumor efficacy, statistical significance (in words): statistically significant

Nc1nn(CO)c2c(=O)n(C3OC(CO)C(O)C3O)nnc12 (centres unmarked) [Example 32, 7-amino-3-(3,4-dihydroxy-5-(hydroxymethyl)tetrahydrofuran-2-yl)-5-(hydroxymethyl)-3H-pyrazolo [4,3-d][1,2,3]triazin-4(5H)-one]
inhibition in vivo at 30 mg/kg (Mus musculus, S-180, mice, iv, 30 mg/kg, read-out: Inhibition rate (%) S180 sarcoma): < 40% | in-vivo anti-tumor efficacy, statistical significance (in words): statistically significant

O=c1c2c(nnn1C1OC(CO)C(O)C1O)c([N+](=O)[O-])nn2CO (centres unmarked) [Example 36, 3-(3,4-dihydroxy-5-(hydroxymethyl)tetrahydrofuran-2-yl)-5-(hydroxymethyl)-7-nitro-3H-pyrazolo [4,3-d][1,2,3]triazin-4(5H)-one]
inhibition in vivo at 200 mg/kg [1]: < 40% | in-vivo anti-tumor efficacy, statistical significance (in words): statistically significant

CCCc1nn(C2CC2)c2c(=O)n(C3OC(CO)C(O)C3O)nnc12 (centres unmarked) [Example 40, 5-cyclopropyl-3-(3,4-dihydroxy-5-(hydroxymethyl)tetrahydrofuran-2-yl)-7-propyl-3H-pyrazolo[4,3-d][1,2,3]triazin-4(5H)-one]
inhibition in vivo at 50 mg/kg [3]: < 20%

CCOC(=O)c1nn(CC(N)=O)c2c(=O)n(C3OC(CO)C(O)C3O)nnc12 (centres unmarked) [Example 48, ethyl 5-(2-amino-2-oxoethyl)-3-(3,4-dihydroxy-5-(hydroxymethyl)tetrahydrofuran-2-yl)-4-oxo-4,5-dihydro-3H-pyrazolo[4,3-d][1,2,3]triazine-7-carboxylate]
inhibition in vivo at 50 mg/kg [3]: < 40% | in-vivo anti-tumor efficacy, statistical significance (in words): statistically significant
